Source: patent publication US20210382058A1, “PATIENT SELECTION FOR TREATMENT OF MYC POSITIVE CANCERS WITH INDENOISOQUINOLINES” (Purdue Research Foundation, priority 2020, published 2021)
Where two headings read alike, the source gives them in different places.

How the values were obtained:
human topoisomerase I = target: T1, human topoisomerase I (Homo sapiens, UniProt P11387); conditions: relative topoisomerase I inhibition levels, previously determined, six levels (0 - 5, +++++ = 5); cited from earlier work
T1 sequence (P11387 1-765): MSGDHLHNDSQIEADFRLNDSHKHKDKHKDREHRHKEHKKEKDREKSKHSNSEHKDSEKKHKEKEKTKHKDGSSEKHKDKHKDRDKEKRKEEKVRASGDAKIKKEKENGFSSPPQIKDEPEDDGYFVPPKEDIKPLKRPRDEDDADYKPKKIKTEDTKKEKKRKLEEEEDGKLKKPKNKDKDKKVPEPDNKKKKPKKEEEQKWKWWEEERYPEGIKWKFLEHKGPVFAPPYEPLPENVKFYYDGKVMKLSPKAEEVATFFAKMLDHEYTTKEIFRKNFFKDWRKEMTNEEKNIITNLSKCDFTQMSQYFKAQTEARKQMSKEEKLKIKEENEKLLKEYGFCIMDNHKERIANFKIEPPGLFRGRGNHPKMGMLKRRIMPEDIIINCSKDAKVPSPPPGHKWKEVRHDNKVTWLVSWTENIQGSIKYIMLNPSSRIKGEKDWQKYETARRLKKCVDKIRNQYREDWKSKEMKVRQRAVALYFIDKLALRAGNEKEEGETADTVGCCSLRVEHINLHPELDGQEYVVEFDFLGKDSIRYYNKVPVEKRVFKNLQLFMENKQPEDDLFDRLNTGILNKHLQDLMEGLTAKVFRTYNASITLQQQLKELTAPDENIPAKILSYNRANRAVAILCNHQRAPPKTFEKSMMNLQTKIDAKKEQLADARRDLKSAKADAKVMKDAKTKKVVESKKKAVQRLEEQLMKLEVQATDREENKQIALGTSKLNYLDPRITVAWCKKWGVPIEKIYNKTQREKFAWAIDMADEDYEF

[1] = system: MYC protein expression in MCF-7 breast cancer cells; assay: Western blotting of MYC protein level in MCF-7 cells; assay type: cell-based, human; conditions: Homo sapiens, MCF7; western blotting, MCF-7 cells, 0.5, 1, 2, and 4 μM, 24 hours; read-out: MYC Inhibition
Method in brief: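 Immunoblotting with ECL detection quantified MYC, with GAPDH (1:2000) as reference and anti-MYC at 1:1000.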

NCI-60 cancer cell lines = assay: NCI-60 cancer cell line drug screen (GI50, MGM); assay type: cell-based, human; conditions: Homo sapiens; for GI50: read-out: Antiproliferative Activities [GI50 (μM)]
Description: Cancer cells were incubated with the test compounds at five concentrations ranging from 100 μM to 10 nM for 48 h. […] The approximate average of GI50 values across the entire panel of NCI-60 cancer cell lines for each compound was recorded as the MGM value.

Question: With `CN(C)CCCn1c2c(c3cccnc3c1=O)C(=O)c1ccccc1-2` [Compound 20] as the compound, how does the “Top1 Inhibiton” value (human topoisomerase I) read?
Answer: +++ (strong inhibition, +++, MYC expression inhibited at 0.5 to 1.0 μM)

Question: And the minimal effective concentration [1]?
Answer: 4 µM

Question: And the GI50 (NCI-60 cancer cell lines; 786-0, Renal Cancer, 786-0)?
Answer: 1.16 µM

Question: What about the GI50 (NCI-60 cancer cell lines; A549, Non-Small Cell Lung Cancer, A549/ATCC) of the same compound?
Answer: 0.59 µM

Question: What about the GI50 (NCI-60 cancer cell lines; ACHN, Renal Cancer, ACHN) of the same compound?
Answer: 0.29 µM

Question: And the GI50 (NCI-60 cancer cell lines; BT-549, Breast Cancer, BT-549)?
Answer: 1.67 µM

Question: And the GI50 (NCI-60 cancer cell lines; CAKI-1, Renal Cancer, CAKI-1)?
Answer: 0.57 µM

Question: What about the GI50 (NCI-60 cancer cell lines; CCRF-CEM, Leukemia, CCRF-CEM) of the same compound?
Answer: 1.37 µM

Question: And the GI50 (NCI-60 cancer cell lines; COLO 205, Colon Cancer, COLO 205)?
Answer: 0.47 µM

Question: And the GI50 (NCI-60 cancer cell lines; DU-145, Prostate Cancer, DU-145)?
Answer: 1.89 µM

Question: And the GI50 (NCI-60 cancer cell lines; HCC 2998, Colon Cancer, HCC-2998)?
Answer: 2.17 µM

Question: What about the GI50 (NCI-60 cancer cell lines; HCT-15, Colon Cancer, HCT-15) of the same compound?
Answer: 1.03 µM

Question: What about the GI50 (NCI-60 cancer cell lines; HCT-116, Colon Cancer, HCT-116) of the same compound?
Answer: 0.44 µM

Question: And the GI50 (NCI-60 cancer cell lines; HL-60, Leukemia, HL-60(TB))?
Answer: 1.8 µM

Question: What about the GI50 (NCI-60 cancer cell lines; HOP-62, Non-Small Cell Lung Cancer, HOP-62) of the same compound?
Answer: 1.25 µM

Question: What about the GI50 (NCI-60 cancer cell lines; HOP-92, Non-Small Cell Lung Cancer, HOP-92) of the same compound?
Answer: 1.42 µM

Question: What about the GI50 (NCI-60 cancer cell lines; HT-29, Colon Cancer, HT29) of the same compound?
Answer: 1.01 µM

Question: And the GI50 (NCI-60 cancer cell lines; Hs-578T, Breast Cancer, HS 578T)?
Answer: 3.08 µM

Question: What about the GI50 (NCI-60 cancer cell lines; IGROV-1, Ovarian Cancer, IGROV1) of the same compound?
Answer: 1.91 µM

Question: What about the GI50 (NCI-60 cancer cell lines; K562, Leukemia, K-562) of the same compound?
Answer: 1.42 µM

Question: And the GI50 (NCI-60 cancer cell lines; KM12, Colon Cancer, KM12)?
Answer: 1.61 µM

Question: What about the GI50 (NCI-60 cancer cell lines; LOX IMVI, Melanoma, LOX IMVI) of the same compound?
Answer: 0.81 µM

Question: And the GI50 (NCI-60 cancer cell lines; Leukemia, SR)?
Answer: 0.31 µM

Question: What about the GI50 (NCI-60 cancer cell lines; MCF7, Breast Cancer, MCF7) of the same compound?
Answer: 0.37 µM

Question: And the GI50 (NCI-60 cancer cell lines; MDA-MB-231, Breast Cancer, MDA-MB-231/ATCC)?
Answer: 2.58 µM

Question: What about the GI50 (NCI-60 cancer cell lines; MDA-MB-435, Melanoma, MDA-MB-435) of the same compound?
Answer: 1.93 µM

Question: What about the GI50 (NCI-60 cancer cell lines; MDA-MB-468, Breast Cancer, MDA-MB-468) of the same compound?
Answer: 1.57 µM

Question: What about the GI50 (NCI-60 cancer cell lines; MOLT-4, Leukemia, MOLT-4) of the same compound?
Answer: 0.29 µM

Question: What about the GI50 (NCI-60 cancer cell lines; Melanoma, M14) of the same compound?
Answer: 1.57 µM

Question: And the GI50 (NCI-60 cancer cell lines; NCI-H23, Non-Small Cell Lung Cancer, NCI-H23)?
Answer: 1.86 µM

Question: What about the GI50 (NCI-60 cancer cell lines; NCI-H226, Non-Small Cell Lung Cancer, NCI-H226) of the same compound?
Answer: 1.32 µM

Question: And the GI50 (NCI-60 cancer cell lines; NCI-H322M, Non-Small Cell Lung Cancer, NCI-H322M)?
Answer: 2.47 µM

Question: What about the GI50 (NCI-60 cancer cell lines; NCI-H460, Non-Small Cell Lung Cancer, NCI-H460) of the same compound?
Answer: 0.41 µM

Question: And the GI50 (NCI-60 cancer cell lines; NCI-H522, Non-Small Cell Lung Cancer, NCI-H522)?
Answer: 1.84 µM

Question: And the GI50 (NCI-60 cancer cell lines; OVCAR-3, Ovarian Cancer, OVCAR-3)?
Answer: 2.41 µM

Question: What about the GI50 (NCI-60 cancer cell lines; OVCAR-4, Ovarian Cancer, OVCAR-4) of the same compound?
Answer: 1.93 µM

Question: And the GI50 (NCI-60 cancer cell lines; OVCAR-5, Ovarian Cancer, OVCAR-5)?
Answer: 2.44 µM

Question: What about the GI50 (NCI-60 cancer cell lines; OVCAR-8, Ovarian Cancer, OVCAR-8) of the same compound?
Answer: 0.95 µM

Question: And the GI50 (NCI-60 cancer cell lines; Ovarian Cancer, NCl/ADR-RES)?
Answer: 2.72 µM

Question: And the GI50 (NCI-60 cancer cell lines; Prostate Cancer, PC-3)?
Answer: 2.05 µM

Question: And the GI50 (NCI-60 cancer cell lines; RPMI-8226, Leukemia, RPMI-8226)?
Answer: 1.84 µM

Question: What about the GI50 (NCI-60 cancer cell lines; RXF 393, Renal Cancer, RXF 393) of the same compound?
Answer: 2.31 µM

Question: And the GI50 (NCI-60 cancer cell lines; Renal Cancer, U0-31)?
Answer: 0.57 µM

Question: What about the GI50 (NCI-60 cancer cell lines; SF-268, CNS Cancer, SF-268) of the same compound?
Answer: 2.15 µM

Question: And the GI50 (NCI-60 cancer cell lines; SF-295, CNS Cancer, SF-295)?
Answer: 0.75 µM

Question: And the GI50 (NCI-60 cancer cell lines; SF-539, CNS Cancer, SF-539)?
Answer: 0.85 µM

Question: And the GI50 (NCI-60 cancer cell lines; SK-MEL-2, Melanoma, SK-MEL-2)?
Answer: 3.92 µM

Question: What about the GI50 (NCI-60 cancer cell lines; SK-MEL-5, Melanoma, SK-MEL-5) of the same compound?
Answer: 1 µM

Question: And the GI50 (NCI-60 cancer cell lines; SK-MEL-28, Melanoma, SK-MEL-28)?
Answer: 1.56 µM

Question: What about the GI50 (NCI-60 cancer cell lines; SK-OV-3, Ovarian Cancer, SK-OV-3) of the same compound?
Answer: 2.22 µM

Question: What about the GI50 (NCI-60 cancer cell lines; SN12C, Renal Cancer, SN12C) of the same compound?
Answer: 1.12 µM

Question: What about the GI50 (NCI-60 cancer cell lines; SNB-19, CNS Cancer, SNB-19) of the same compound?
Answer: 1.75 µM

Question: What about the GI50 (NCI-60 cancer cell lines; SNB-75, CNS Cancer, SNB-75) of the same compound?
Answer: 0.66 µM

Question: And the GI50 (NCI-60 cancer cell lines; SW-620, Colon Cancer, SW-620)?
Answer: 0.46 µM

Question: What about the GI50 (NCI-60 cancer cell lines; T47D, Breast Cancer, T-47D) of the same compound?
Answer: 2.04 µM

Question: And the GI50 (NCI-60 cancer cell lines; TK-10, Renal Cancer, TK-10)?
Answer: 3.02 µM

Question: What about the GI50 (NCI-60 cancer cell lines; U-251, CNS Cancer, U251) of the same compound?
Answer: 1.05 µM

Question: What about the GI50 (NCI-60 cancer cell lines; UACC-62, Melanoma, UACC-62) of the same compound?
Answer: 1.3 µM

Question: What about the GI50 (NCI-60 cancer cell lines; UACC-257, Melanoma, UACC-257) of the same compound?
Answer: 2.02 µM

Question: What about the mean GI50 across NCI-60 panel (MGM) (NCI-60 cancer cell lines; average of GI50 values across the entire panel of NCI-60 cancer cell lines) of the same compound?
Answer: 1260 nM
